{"source": "paper PMC8453745", "about": "“Human Mass Balance and Metabolite Profiling of [^14C]‐Pamiparib, a Poly (ADP‐Ribose) Polymerase Inhibitor, in Patients With Advanced Cancer” (Clinical Pharmacology in Drug Development, 2021)", "key": {"[1]": {"system": "BRCA1 mutant mouse xenograft", "settings": "BRCA1 mutant mouse xenograft model; cited from earlier work"}, "[2]": {"system": "CYP1A2, CYP2B6, CYP2C9, CYP2C19", "experiment": "CYP450 phenotyping in HLMs with all other CYP inhibitors", "type": "in vitro ADME, human", "settings": "HLM incubation", "method": "(§1) Metabolic stability in human liver microsomes (HLMs) and cytochrome P450 (CYP450) phenotyping assays were conducted in 3D BioOptima (Suzhou, China) using validated methodology, [13] to determine the intrinsic clearance and enzymes responsible for metabolism of pamiparib. HLMs for microsome stability was from BD Biosciences (Woburn, New York). For phenotyping, HLMs and recombinant P450 (rCYP) were from Corning (Woburn, New York). Pamiparib (1 μM) was incubated with pooled HLM (0.5 mg/mL), NADPH (1 mM), and MgCl2 (3 mM) terminated at 0, 5, 15, 30, 60, and 90 minutes. The intrinsic clearance was calculated as 0.693/(t1/2 × HLM concentration), where t1/2 is the half‐life of pamiparib determined in HLMs. For phenotyping in HLMs, pamiparib (1 μM) was incubated in the absence or presence of isoform‐selective inhibitors: 0.2 μM α‐naphthoflavone for CYP1A2, 2 μM clopidogrel for CYP2B6, 16 μM montelukast for CYP2C8, 10 μM sulfaphenazole for CYP2C9, 30 μM nootkatone for CYP2C19, 2 μM quinidine for CYP2D6, and 1 μM ketoconazole for CYP3A. The following isoform‐selective probe substrates served as positive controls: 40 μM phenacetin for CYP1A2, 100 μM bupropion for CYP2B6, 2 μM amodiaquine for CYP2C8, 5 μM diclofenac for CYP2C9, 40 μM S‐mephenytoin for CYP2C19, 5 μM dextromethorphan for CYP2D6, and 2 μM midazolam for CYP3A4. […] Pamiparib, M1, and M2 were analyzed by LC‐MS/MS."}, "[3]": {"set-up": "method as in PMID 32652442", "settings": "after oral administration in mice; cited from earlier work"}, "CYP2D6": {"biological_target": "T1, CYP2D6 (Homo sapiens, UniProt P10635)", "T1 construct": "tissue Corning (Woburn, New York); host or cells: pooled human liver microsomes", "T1 sequence (P10635 whole entry)": "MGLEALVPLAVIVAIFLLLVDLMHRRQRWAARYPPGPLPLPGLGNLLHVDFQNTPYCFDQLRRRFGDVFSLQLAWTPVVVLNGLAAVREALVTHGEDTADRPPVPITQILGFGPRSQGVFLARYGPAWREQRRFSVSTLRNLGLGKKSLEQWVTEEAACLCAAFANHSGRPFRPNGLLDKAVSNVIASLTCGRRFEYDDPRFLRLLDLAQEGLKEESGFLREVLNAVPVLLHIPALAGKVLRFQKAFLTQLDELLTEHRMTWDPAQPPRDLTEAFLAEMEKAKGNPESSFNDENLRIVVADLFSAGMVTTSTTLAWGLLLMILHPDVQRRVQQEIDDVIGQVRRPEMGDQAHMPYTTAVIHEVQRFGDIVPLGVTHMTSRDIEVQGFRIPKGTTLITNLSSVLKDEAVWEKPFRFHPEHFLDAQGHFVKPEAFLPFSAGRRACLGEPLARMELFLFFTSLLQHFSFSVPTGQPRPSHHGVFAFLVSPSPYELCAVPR", "experiment": "CYP450 phenotyping in HLMs with CYP2D6 inhibitor quinidine", "type": "in vitro ADME", "settings": "HLM incubation", "method": "as §1"}}}
{"smiles": "C[C@]12CCCN1CC1=NNC(=O)c3cc(F)cc4[nH]c2c1c34", "note": "[Pamiparib]", "values": [{"measurement": "antitumor activity", "setting": "[1]", "value": "strong antitumor activity"}, {"measurement": "potency compared with olaparib", "setting": "[1]", "value": "more potent than olaparib"}, {"measurement": "effect of all other CYP inhibitors on pamiparib metabolism", "setting": "[2]", "value": "nearly no effect"}, {"measurement": "brain penetrance", "setting": "[3]", "value": "brain penetrance"}, {"measurement": "effect of CYP2D6 inhibitor quinidine on pamiparib metabolism", "setting": "CYP2D6", "value": "minimal effect"}]}
